Results taken from ChEMBL document CHEMBL1135011, “Isolation and antimalarial activity of peroxydisulfate oxidation products of primaquine” (Bioorg Med Chem Lett, 2002).

Legend:
[1] = test system: Plasmodium falciparum; experiment: (§1) Effective concentration for gametocidal activity against Plasmodium falciparum FDL-HD; type: functional, organism-based
[2] = test system: Plasmodium falciparum; experiment: (§2) Effective concentration for schizonticidal activity against Plasmodium falciparum FDL-HD; type: functional
[3] = test system: Plasmodium falciparum; experiment: as §1; type: functional
[4] = test system: Plasmodium falciparum; experiment: as §2; type: functional, organism-based
[5] = test system: Mus musculus; experiment: Tested for in vivo gametocytocidal activity against Plasmodium yoelii infected mice, on intraperitoneal dose of 10 mg/kg at -1h of mosquito feeding; Activity = No of Oocytes for infectivity; type: functional
[6] = organism: Mus musculus; experiment: Activity by comparing the number of oocytes on midgets of mosquitoes fed on drug treated on 1 mice with those of insects fed on untreated animals at 24 hr of mosquito feeding; 0/20; type: functional
[7] = organism: Mus musculus; experiment: Activity by comparing the number of oocytes on midgets of mosquitoes fed on drug treated on 1 mice with those of insects fed on untreated animals at 6 hr of mosquito feeding; 0/20; type: functional
[8] = organism: Mus musculus; experiment: Activity by comparing the number of oocytes on midgets of mosquitoes fed on drug treated on 1 mice with those of insects fed on untreated animals at -1h of mosquito feeding; 18/20; type: functional
[9] = organism: Mus musculus; experiment: Activity by comparing the number of oocytes on midgets of mosquitoes fed on drug treated on mice (2) with those of insects fed on untreated animals at -1h of mosquito feeding; 5/15; type: functional
[10] = test system: Mus musculus; experiment: Gametocytocidal activity against Plasmodium yoelii infected mice (2) on intraperitoneal dose of 10 mg/kg at 24 hr of mosquito feeding was determined and average of oocyst determined to find infectivity; type: functional
[11] = test system: Mus musculus; experiment: Gametocytocidal activity against Plasmodium yoelii infected mice (2) on intraperitoneal dose of 10 mg/kg at -1h of mosquito feeding was determined and average of oocyst determined to find infectivity; type: functional
[12] = test system: Mus musculus; experiment: Tested for in vivo gametocytocidal activity against Plasmodium yoelii infected mice (1), on intraperitoneal dose of 10 mg/kg at +6h of mosquito feeding; Activity = No of Oocytes for infectivity; type: functional
[13] = organism: Mus musculus; experiment: Activity by comparing the number of oocytes on midgets of mosquitoes fed on drug treated on mice (1) with those of insects fed on untreated animals at 6 hr of mosquito feeding; 16/20; type: functional
[14] = organism: Mus musculus; experiment: Activity by comparing the number of oocytes on midgets of mosquitoes fed on drug treated on mice (1) with those of insects fed on untreated animals at -1h of mosquito feeding; 18/20; type: functional
[15] = organism: Mus musculus; experiment: Activity by comparing the number of oocytes on midgets of mosquitoes fed on drug treated on mice (2) with those of insects fed on untreated animals at -1h of mosquito feeding; 12/15; type: functional
[16] = test system: Mus musculus; experiment: Tested for in vivo gametocytocidal activity against Plasmodium yoelii infected mice (1), on intraperitoneal dose of 10 mg/kg at +24h of mosquito feeding; Activity = No of Oocytes for infectivity; type: functional
[17] = organism: Mus musculus; experiment: Activity by comparing the number of oocytes on midgets of mosquitoes fed on drug treated on mice (1) with those of insects fed on untreated animals at 24 hr of mosquito feeding; 10/12; type: functional
[18] = organism: Mus musculus; experiment: Activity by comparing the number of oocytes on midgets of mosquitoes fed on drug treated on mice (2) with those of insects fed on untreated animals at -1h of mosquito feeding; 13/15; type: functional
[19] = test system: Mus musculus; experiment: Gametocytocidal activity against Plasmodium yoelii infected mice (2) on intraperitoneal dose of 10 mg/kg at 6 hr of mosquito feeding was determined and average of oocyst determined to find infectivity; type: functional
[20] = organism: Mus musculus; experiment: Activity by comparing the number of oocytes on midgets of mosquitoes fed on drug treated on mice (2) with those of insects fed on untreated animals at 24 hr of mosquito feeding; 0/20; type: functional
[21] = organism: Mus musculus; experiment: Activity by comparing the number of oocytes on midgets of mosquitoes fed on drug treated on 1 mice with those of insects fed on untreated animals at -1h of mosquito feeding; 15/15; type: functional
[22] = test system: Mus musculus; experiment: Gametocytocidal activity against Plasmodium yoelii infected mice (2) on intraperitoneal dose of 10 mg/kg at -1h of mosquito feeding was determined and average of oocysts determined to find infectivity; type: functional
[23] = organism: Mus musculus; experiment: Activity by comparing the number of oocytes on midgets of mosquitoes fed on drug treated on mice (2) with those of insects fed on untreated animals at -1h of mosquito feeding; 16/20; type: functional
[24] = organism: Mus musculus; experiment: Activity by comparing the number of oocytes on midgets of mosquitoes fed on drug treated on mice (2) with those of insects fed on untreated animals at 6 hr of mosquito feeding; 0/20; type: functional
[25] = organism: Mus musculus; experiment: Activity by comparing the number of oocytes on midgets of mosquitoes fed on drug treated on mice (3) with those of insects fed on untreated animals at 6 hr of mosquito feeding; 0/10; type: functional
[26] = organism: Mus musculus; experiment: Activity by comparing the number of oocytes on midgets of mosquitoes fed on drug treated on mice (3) with those of insects fed on untreated animals at -1h of mosquito feeding; 8/11; type: functional
[27] = test system: Mus musculus; experiment: Gametocytocidal activity against Plasmodium yoelii infected mice (3) on intraperitoneal dose of 10 mg/kg at -1h of mosquito feeding was determined and average of oocysts determined to find infectivity; type: functional

Structure (SMILES): COc1c(O)c(NC(C)CCCN)c2ncccc2c1-c1c(OC)c(O)c(NC(C)CCCN)c2ncccc12 (stereo unspecified)
- IC50 [1]: > 150 ug well-1
- IC90 [2]: 1.75 ug well-1
- IC90 [3]: >150 ug well-1
- IC50 [4]: 0.49 ug well-1

Structure (SMILES): CCN(CC)CCCC(C)Nc1ccnc2cc(Cl)ccc12 (stereo unspecified) [CHLOROQUINE]
- IC90 [2]: 0.015 ug well-1
- IC50 [4]: 0.011 ug well-1

Structure (SMILES): COc1cc(NC(C)CCCN)c2ncccc2c1 (stereo unspecified) [PRIMAQUINE]
- Activity [5]: 280.7
- IC50 [1]: 0.115 ug well-1
- Ratio [6]: 0
- Ratio [7]: 0
- Ratio [8]: 18
- IC90 [3]: 0.38 ug well-1

Structure (SMILES): CC(CCCN)Nc1c(O)c(O)c(NC(C)CCCN)c2ncccc12 (stereo unspecified)
- IC50 [1]: > 150 ug well-1
- IC90 [2]: >50 ug well-1
- IC90 [3]: >150 ug well-1
- IC50 [4]: > 50 ug well-1

Structure (SMILES): CC(CCCN)N(C(C)CCCN)C(C)CCCN (stereo unspecified)
- IC50 [1]: 0.115 ug well-1
- IC90 [2]: 0.245 ug well-1
- IC90 [3]: 0.38 ug well-1
- IC50 [4]: 0.155 ug well-1

Structure (SMILES): COc1cc(NC(C)CCCN)c2ncccc2c1-c1c(OC)cc(NC(C)CCCN)c2ncccc12 (stereo unspecified)
- Ratio [9]: 5
- Activity [10]: 68.33
- Activity [5]: >300
- IC50 [1]: 0.036 ug well-1
- Activity [11]: 260.3
- IC90 [2]: 0.19 ug well-1
- Activity [12]: >300
- Ratio [13]: 16
- Ratio [14]: 18
- Ratio [15]: 12
- Activity [16]: >300
- IC90 [3]: 0.062 ug well-1
- IC50 [4]: 0.031 ug well-1
- Ratio [17]: 10
- Ratio [18]: 13
- Activity [19]: 221.3

Structure (SMILES): COc1cc(NC(C)CCCN)c2ncccc2c1NC(C)CCCN (stereo unspecified)
- Activity [5]: 315
- IC50 [1]: 0.026 ug well-1
- Ratio [20]: 0
- Ratio [21]: 15
- Activity [22]: 240
- Ratio [6]: 0
- IC90 [2]: 0.235 ug well-1
- Ratio [7]: 0
- Ratio [23]: 16
- Ratio [24]: 0
- Ratio [25]: 0
- Ratio [26]: 8
- IC90 [3]: 0.055 ug well-1
- IC50 [4]: 0.046 ug well-1
- Activity [27]: 185
